In paper PMC8373237 (Antimicrobial Agents and Chemotherapy, 2021):
Converted amounts (≈) assume the structure as drawn. Like-named read-outs stand apart in the source and are kept apart here. Square brackets hold non-standard residues; d marks the D form. Peptide text beside a SMILES is read from it. Nphe = O=C(O)CNCc1ccccc1; NPrGly = CCCNCC(=O)O; Sar = CNCC(=O)O

Experiments:
[1] = system: Salmonella enterica Typhimurium SPI-1 T3SS; settings: cited from earlier work
[2] = system: P. aeruginosa PA103 T3SS (ExoU secretion); assay type: cell-based, Pseudomonas aeruginosa
[3] = Kinetic solubility; assay type: physicochemical
Description: […] Then, […] of 15 mM stock compound was added to make a solution of 120 μM final concentration with 0.8% DMSO. The solution was shaken at 37°C for ∼2 h. The solution was passed over a 0.7- μM glass fiber filter. Then, the solution was diluted 1:4 in acetonitrile to crash out any proteins. The solution was centrifuged at 500 × g for 10 min. Avoiding the pellet, 10 μl of supernatant was added to a fresh plate with 90 μl of acetonitrile. The final dilution is 40 times lower. Next, 10 μl of 40× dilution of solution was injected on the Orbi-trap. A 1 μM standard was used for the ratiometric comparison, and the assay was done in triplicate.

Structure (SMILES): COc1ccc(C(C)=O)c(O)c1 [Paeonol]
- lowest known inhibitory concentration (∼), Sips secretion ([1]; culture-based secretion assay, ref [99]): ∼95 Sips^b μM

Structure (SMILES): CC(C)=CCc1c(O)cc2oc(-c3ccc(O)cc3)c(O)c(=O)c2c1O [Licoflavonol]
- lowest known inhibitory concentration (∼), SipC secretion ([1]; culture-based secretion assay, ref [86]): ∼50 SipC^b μM

Structure (SMILES): CCCN1CC(=O)N(Cc2ccccc2)CC(=O)N[C@H](CC(C)C)C(=O)N[C@@H]([C@@H](C)CC)C(=O)N[C@@H](CC(C)C)C(=O)N[C@H](C)C1=O [1EpDN 6Ala, EpD1,2N 6Ala] (cyclo(IL[dA][NPrGly][Nphe][dL]))
- IC50 ([2]; read-out: IC50 (Table S1)): > 1000 µM
- solubility kinetic [3]: 125 µM (≈ 82.1 µg/mL)

Structure (SMILES): CCCN1CC(=O)N(Cc2ccccc2)CC(=O)N[C@@H](CC(C)C)C(=O)N[C@H]([C@H](C)CC)C(=O)N[C@H](CC(C)C)C(=O)N[C@@H](Cc2ccccc2)C1=O [9EpDN, 9-EpD1,2N] (cyclo(F[NPrGly][Nphe]L[dI][dL]))
- IC50 ([2]; read-out: IC50 (Table S1)): 12.8 µM
- IC50 ([2]; read-out: IC50, inhibition of secretion of T3SS effector ExoU): ~13 µM
- solubility kinetic [3]: 10 µM (≈ 7.33 µg/mL)

Structure (SMILES): CCCCc1ccc(C(=O)O)nc1 [Fusaric acid]
- IC50 ([1]; culture-based secretion assay, ref [101], read-out: IC50, SipC secretion): 53.5 µM

Structure (SMILES): CCCN1CC(=O)N(Cc2ccccc2)CC(=O)N[C@H](CC(C)C)C(=O)N[C@@H]([C@@H](C)CC)C(=O)N[C@H](CC(C)C)C(=O)N[C@H](Cc2ccccc2)C1=O [3EpDN, 3-EpD1,2N] (cyclo(I[dL][dF][NPrGly][Nphe][dL]))
- IC50 ([2]; read-out: IC50 (Table S1)): 16 µM
- solubility kinetic [3]: 18 µM (≈ 13.2 µg/mL)

Structure (SMILES): CCCN1CC(=O)N(Cc2ccccc2)CC(=O)N[C@H](CC(C)C)C(=O)N[C@@H](C)C(=O)N[C@@H](CC(C)C)C(=O)N[C@H](Cc2ccccc2)C1=O [1EpDN 4Ala, EpD1,2N 4Ala] (cyclo(AL[dF][NPrGly][Nphe][dL]))
- IC50 ([2]; read-out: IC50 (Table S1)): > 1000 µM
- solubility kinetic [3]: 75 µM (≈ 51.8 µg/mL)

Structure (SMILES): CCCN1CC(=O)N(Cc2ccccc2)CC(=O)N[C@H](C)C(=O)N[C@@H]([C@@H](C)CC)C(=O)N[C@@H](CC(C)C)C(=O)N[C@H](Cc2ccccc2)C1=O [1EpDN 3Ala, EpD1,2N 3Ala] (cyclo(IL[dF][NPrGly][Nphe][dA]))
- IC50 ([2]; read-out: IC50 (Table S1)): > 1000 µM
- solubility [3]: 180 µM (≈ 124 µg/mL)

Structure (SMILES): CC[C@H](C)[C@@H]1NC(=O)[C@H](CC(C)C)NC(=O)CN(Cc2ccccc2)C(=O)CN(C)C(=O)[C@@H](Cc2ccccc2)NC(=O)[C@@H](CC(C)C)NC1=O [4EpDN 1Sar, 4-EpD1,2N 1Sar] (cyclo(I[dL][dF][Sar][Nphe]L))
- T3SS inhibitory activity (ExoU secretion), in words [2]: significantly reduced activity
- IC50 ([2]; read-out: IC50 (Table S1)): 19 µM
- solubility ([3]; DMEM (no antibiotics)): 6 µM (≈ 4.23 µg/mL)
- solubility ([3]; M9): 4 µM (≈ 2.82 µg/mL)

Structure (SMILES): CCCN1CC(=O)N(Cc2ccccc2)CC(=O)N[C@H](CC(C)C)C(=O)N[C@@H]([C@@H](C)CC)C(=O)N[C@@H](CC(C)C)C(=O)N[C@@H](Cc2ccccc2)C1=O [8EpDN, 8-EpD1,2N] (cyclo(F[NPrGly][Nphe][dL]IL))
- IC50 ([2]; read-out: IC50 (Table S1)): 41.5 µM
- solubility kinetic [3]: 1 µM (≈ 0.733 µg/mL)

Structure (SMILES): CCCN1CC(=O)N(Cc2ccccc2)CC(=O)N[C@@H](CC(C)C)C(=O)N[C@@H]([C@@H](C)CC)C(=O)N[C@H](CC(C)C)C(=O)N[C@@H](Cc2ccccc2)C1=O [5EpDN, 5-EpD1,2N] (cyclo(F[NPrGly][Nphe]LI[dL]))
- IC50 ([2]; read-out: IC50 (Table S1)): 6.3 µM
- solubility kinetic [3]: 13 µM (≈ 9.53 µg/mL)

Structure (SMILES): COc1cc(C=O)cc(OC)c1O [Syringaldehyde]
- lowest known inhibitory concentration (∼), Sips secretion ([1]; culture-based secretion assay, ref [100]): ∼180 Sips^b μM

Structure (SMILES): COc1c2cc(c(O)c1OC)CCCC[C@@H](O)CCc1ccc(O)c-2c1 [Myricanol]
- IC50 ([1]; footnote printed as a, ref [107], read-out: IC50, SipC): 41.3 µM

Structure (SMILES): CCCN1CC(=O)N(Cc2ccccc2)CC(=O)N[C@H](CC(C)C)C(=O)N[C@@H]([C@@H](C)CC)C(=O)N[C@@H](C)C(=O)N[C@H](Cc2ccccc2)C1=O [1EpDN 5Ala, EpD1,2N 5Ala] (cyclo(A[dF][NPrGly][Nphe][dL]I))
- IC50 ([2]; read-out: IC50 (Table S1)): > 1000 µM
- solubility kinetic [3]: 127 µM (≈ 87.7 µg/mL)

Structure (SMILES): CCCN1CC(=O)N(Cc2ccccc2)CC(=O)N[C@H](CC(C)C)C(=O)N[C@@H]([C@@H](C)CC)C(=O)N[C@H](CC(C)C)C(=O)N[C@@H](Cc2ccccc2)C1=O [6EpDN, 6-EpD1,2N] (cyclo(F[NPrGly][Nphe][dL]I[dL]))
- IC50 ([2]; read-out: IC50 (Table S1)): > 1000 µM
- solubility kinetic [3]: 1 µM (≈ 0.733 µg/mL)

Structure (SMILES): CCCN1CC(=O)N(Cc2ccccc2)CC(=O)N[C@@H](CC(C)C)C(=O)N[C@@H]([C@@H](C)CC)C(=O)N[C@@H](CC(C)C)C(=O)N[C@H](Cc2ccccc2)C1=O [2EpDN, 2-EpD1,2N] (cyclo(IL[dF][NPrGly][Nphe]L))
- IC50 ([2]; read-out: IC50 (Table S1)): 15.3 µM
- solubility kinetic [3]: 12 µM (≈ 8.8 µg/mL)
